From patent US12331044B2, “Inhibitors of histone deacetylase useful for the treatment or prevention of HIV infection” (Merck Sharp & Dohme LLC, priority 2018, dated 2025)
pIC50: −log10 of the molar value. Read-outs that look alike come from different tables or passages of the source.

Tests used:
[1] = biological target: human HDAC2 (Homo sapiens (Human), UniProt Q92769); test: HDAC2 inhibition assay (modified FLUOR DE LYS, 384-well); type: biochemical; settings: […] nM enzyme, 40 μM substrate BML-KI104, 3 h pre-incubation; read-out: HDAC2 IC50
[2] = biological target: human HDAC8 (Homo sapiens (Human), UniProt Q9BY41); test: HDAC8 inhibition assay (modified FLUOR DE LYS, 384-well); type: biochemical; settings: […] nM enzyme, 200 μM substrate BML-KI178, 3 h pre-incubation; read-out: HDAC8 IC50
[3] = tested on: KARN cells (Jurkat 2C4); test: cells; settings: Homo sapiens
Experimental: KARN Assay Cell Maintenance
KARN cells (Jurkat 2C4) were licensed from the laboratory of Dr. John Karn, Case Western Reserve University, School of Medicine. […] An atmosphere of 5% CO2 and 90% humidity was used for all culture work.
These flasks were returned to the incubator.
The cells were gently resuspended in assay media (30 ml) and pelleted again. […] The cells were counted using the ViCell (Beckman Coulter) and diluted as necessary. […] The plates were covered and returned to the incubator prior to compound addition.
The reference compounds, DMSO and SAHA were then added to the compound plate. […] The final high concentration for SAHA and the test compounds in the assays was 40 μM. The final DMSO concentration in all wells was 0.4%. The minimal induction reference compound used was DMSO and the maximal induction reference compound used was SAHA (2 μM final concentration in the assay).
Day 3: The luciferase detection reagent was prepared by transferring the contents of one bottle of Steady-Glo buffer to one bottle of Steady-Glo aubstrate (Steady-Glo Luciferase Assay System, Promega, catalog number E2520), followed by gently mixing until the substrate was thoroughly dissolved and the solution was equilibrated to room temperature. […] The Steady-Glo Reagent was added to the plates (30 μl/well), which were then covered with a black lid and incubated for 10 minutes at room temperature. The plates were then read for luminescence on an Envision (Perkin Elmer) using the ultrasensitive mode (US LUM), 0.1 counts per second and 384-well aperture. Luminescence counts in the DMSO reference wells were considered as 0% induction, while those in the 2 μM SAHA reference wells were considered as 100% induction. Dose response curves were plotted as test compound concentration (X-axis) vs. percent activation (Y-axis) using a 4-parameter fit based on the Levenberg-Marquardt algorithm.

[4] = biological target: human HDAC1 (Homo sapiens (Human), UniProt Q13547); test: biochemical
[5] = biological target: human HDAC3/SMRT heterodimer (Homo sapiens (Human), UniProt O15379); test: biochemical
[6] = biological target: HDAC6 (Homo sapiens (Human), UniProt Q9UBN7); test: biochemical
Experimental: The histone deacetylase activities of HDAC1, HDAC2, HDAC3, HDAC6, and HDAC8 were measured in modified FLUOR DE LYS assays in 384-well format. In this assay, HDAC enzymes are initially incubated with an F-acetyl (or -trifluoroacetyl)-L-lysine-containing substrate with a C-terminal amide having aminomethylcoumarin as the amine component. HDACs cleave the F-acetyl group, rendering the resulting product susceptible to AMC cleavage by trypsin. The released AMC is then detected by its fluorescence. […] All steps were performed at room temperature (23° C.). The assay was performed by pre-incubating serial dilutions of test compounds with the target HDAC prior to initiation with substrate. […] Final conditions used for each assay were: 1. […] The reactions were stopped and developed by addition of 30 ul of HDAC developer solution containing a saturating level of HDAC inhibitor as follows: 1. […] For data analysis, background subtracted product (fluorescence) vs. time data for each inhibitor concentration was fitted using a 4-parameter fit.

[7] = read-out: Karn EC50 nM 0.1% NHS, 0.1% normal human serum, luciferase induction, 2 μM SAHA = 100%
[8] = read-out: Karn EC50 nM 5% NHS, 5% normal human serum, luciferase induction, 2 μM SAHA = 100%
[9] = read-out: Karn EC50 nM 0.1% NHS

Chain of HDAC6 (Q9UBN7 whole entry): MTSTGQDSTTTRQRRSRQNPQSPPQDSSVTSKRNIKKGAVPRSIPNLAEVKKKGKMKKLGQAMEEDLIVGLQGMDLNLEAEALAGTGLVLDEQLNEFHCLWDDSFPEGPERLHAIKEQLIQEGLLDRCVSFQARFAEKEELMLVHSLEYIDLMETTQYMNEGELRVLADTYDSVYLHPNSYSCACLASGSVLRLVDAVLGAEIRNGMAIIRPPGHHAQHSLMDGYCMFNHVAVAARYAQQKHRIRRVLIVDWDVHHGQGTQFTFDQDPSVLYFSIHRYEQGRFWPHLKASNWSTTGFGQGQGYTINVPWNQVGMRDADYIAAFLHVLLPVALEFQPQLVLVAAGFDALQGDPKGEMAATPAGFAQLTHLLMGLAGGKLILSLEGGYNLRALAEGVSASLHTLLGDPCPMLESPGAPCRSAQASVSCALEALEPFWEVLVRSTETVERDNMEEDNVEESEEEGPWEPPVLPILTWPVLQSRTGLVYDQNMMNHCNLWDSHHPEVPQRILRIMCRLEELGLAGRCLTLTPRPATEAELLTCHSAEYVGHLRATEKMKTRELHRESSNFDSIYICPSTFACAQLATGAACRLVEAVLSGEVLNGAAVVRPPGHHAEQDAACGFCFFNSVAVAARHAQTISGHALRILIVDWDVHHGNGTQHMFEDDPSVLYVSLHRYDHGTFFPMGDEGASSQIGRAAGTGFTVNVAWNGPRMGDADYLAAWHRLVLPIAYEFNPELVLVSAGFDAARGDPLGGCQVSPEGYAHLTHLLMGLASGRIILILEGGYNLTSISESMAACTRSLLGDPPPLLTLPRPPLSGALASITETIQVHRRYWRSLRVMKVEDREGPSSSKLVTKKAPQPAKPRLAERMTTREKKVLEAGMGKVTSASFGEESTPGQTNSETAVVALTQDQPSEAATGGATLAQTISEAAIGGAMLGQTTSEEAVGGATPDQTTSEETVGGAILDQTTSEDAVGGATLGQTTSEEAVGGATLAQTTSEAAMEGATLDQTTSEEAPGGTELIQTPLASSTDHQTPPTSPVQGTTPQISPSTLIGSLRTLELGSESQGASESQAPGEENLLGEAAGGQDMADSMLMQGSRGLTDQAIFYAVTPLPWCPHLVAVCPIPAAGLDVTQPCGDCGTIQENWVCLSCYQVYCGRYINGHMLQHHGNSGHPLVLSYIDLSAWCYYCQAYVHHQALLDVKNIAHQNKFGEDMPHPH
Chain of human HDAC8 (Q9BY41 whole entry): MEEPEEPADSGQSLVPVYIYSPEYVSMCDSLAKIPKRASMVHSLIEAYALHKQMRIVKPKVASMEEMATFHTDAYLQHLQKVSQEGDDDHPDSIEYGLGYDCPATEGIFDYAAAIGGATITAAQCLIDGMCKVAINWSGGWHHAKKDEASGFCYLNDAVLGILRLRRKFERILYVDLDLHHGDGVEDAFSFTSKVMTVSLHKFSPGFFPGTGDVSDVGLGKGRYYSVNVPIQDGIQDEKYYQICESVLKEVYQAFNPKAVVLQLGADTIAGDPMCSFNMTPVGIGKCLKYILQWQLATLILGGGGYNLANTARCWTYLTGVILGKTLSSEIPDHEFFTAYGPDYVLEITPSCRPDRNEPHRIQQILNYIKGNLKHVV
Chain of human HDAC3/SMRT heterodimer (O15379 whole entry): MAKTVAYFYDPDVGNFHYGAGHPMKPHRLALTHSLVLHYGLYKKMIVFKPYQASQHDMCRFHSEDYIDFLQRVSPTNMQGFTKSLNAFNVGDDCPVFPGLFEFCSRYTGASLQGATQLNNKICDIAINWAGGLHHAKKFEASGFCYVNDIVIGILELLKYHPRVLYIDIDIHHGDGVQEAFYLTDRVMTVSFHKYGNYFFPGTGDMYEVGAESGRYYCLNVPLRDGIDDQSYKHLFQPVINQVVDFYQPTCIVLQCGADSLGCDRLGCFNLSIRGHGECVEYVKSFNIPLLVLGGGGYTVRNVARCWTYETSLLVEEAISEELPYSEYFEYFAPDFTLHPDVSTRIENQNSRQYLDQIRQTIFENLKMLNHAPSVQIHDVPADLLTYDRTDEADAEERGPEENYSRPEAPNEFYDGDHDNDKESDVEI
Chain of human HDAC3/SMRT heterodimer (Q9Y618 1-899 partner): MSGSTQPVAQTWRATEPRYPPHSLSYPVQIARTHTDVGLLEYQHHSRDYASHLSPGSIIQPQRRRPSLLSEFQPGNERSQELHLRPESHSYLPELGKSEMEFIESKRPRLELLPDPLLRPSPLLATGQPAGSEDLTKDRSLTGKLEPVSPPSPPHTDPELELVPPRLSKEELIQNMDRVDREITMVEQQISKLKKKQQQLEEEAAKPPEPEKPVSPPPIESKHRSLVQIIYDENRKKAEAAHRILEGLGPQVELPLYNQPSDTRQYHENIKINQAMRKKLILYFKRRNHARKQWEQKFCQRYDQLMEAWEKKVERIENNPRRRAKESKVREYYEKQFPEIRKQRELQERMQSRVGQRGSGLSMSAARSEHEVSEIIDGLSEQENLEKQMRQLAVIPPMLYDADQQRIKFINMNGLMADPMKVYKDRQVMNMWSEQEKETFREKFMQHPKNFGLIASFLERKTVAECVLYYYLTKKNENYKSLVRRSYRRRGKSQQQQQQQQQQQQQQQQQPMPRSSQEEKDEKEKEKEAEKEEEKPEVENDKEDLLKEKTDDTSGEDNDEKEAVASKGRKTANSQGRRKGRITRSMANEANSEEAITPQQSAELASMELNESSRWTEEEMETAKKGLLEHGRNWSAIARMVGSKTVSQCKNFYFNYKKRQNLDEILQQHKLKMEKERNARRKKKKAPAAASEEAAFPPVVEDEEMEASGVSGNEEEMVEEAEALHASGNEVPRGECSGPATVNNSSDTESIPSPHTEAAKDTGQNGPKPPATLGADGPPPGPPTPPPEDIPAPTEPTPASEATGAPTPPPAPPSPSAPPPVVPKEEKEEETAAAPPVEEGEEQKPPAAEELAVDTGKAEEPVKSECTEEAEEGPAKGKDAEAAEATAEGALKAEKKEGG
Chain of human HDAC2 (Q92769 whole entry): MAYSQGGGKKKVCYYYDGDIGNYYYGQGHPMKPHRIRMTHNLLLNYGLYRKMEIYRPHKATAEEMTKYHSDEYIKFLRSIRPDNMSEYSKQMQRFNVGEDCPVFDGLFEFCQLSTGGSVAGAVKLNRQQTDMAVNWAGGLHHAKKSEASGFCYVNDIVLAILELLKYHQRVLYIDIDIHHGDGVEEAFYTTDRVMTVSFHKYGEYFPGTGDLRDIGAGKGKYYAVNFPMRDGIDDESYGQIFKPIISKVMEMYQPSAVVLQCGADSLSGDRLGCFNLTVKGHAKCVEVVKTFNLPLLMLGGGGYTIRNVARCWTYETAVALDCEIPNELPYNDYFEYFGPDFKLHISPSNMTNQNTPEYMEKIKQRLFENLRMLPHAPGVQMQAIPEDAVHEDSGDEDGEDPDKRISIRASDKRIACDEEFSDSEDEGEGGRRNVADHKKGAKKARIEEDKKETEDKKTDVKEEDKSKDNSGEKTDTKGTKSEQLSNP
Chain of human HDAC1 (Q13547 whole entry): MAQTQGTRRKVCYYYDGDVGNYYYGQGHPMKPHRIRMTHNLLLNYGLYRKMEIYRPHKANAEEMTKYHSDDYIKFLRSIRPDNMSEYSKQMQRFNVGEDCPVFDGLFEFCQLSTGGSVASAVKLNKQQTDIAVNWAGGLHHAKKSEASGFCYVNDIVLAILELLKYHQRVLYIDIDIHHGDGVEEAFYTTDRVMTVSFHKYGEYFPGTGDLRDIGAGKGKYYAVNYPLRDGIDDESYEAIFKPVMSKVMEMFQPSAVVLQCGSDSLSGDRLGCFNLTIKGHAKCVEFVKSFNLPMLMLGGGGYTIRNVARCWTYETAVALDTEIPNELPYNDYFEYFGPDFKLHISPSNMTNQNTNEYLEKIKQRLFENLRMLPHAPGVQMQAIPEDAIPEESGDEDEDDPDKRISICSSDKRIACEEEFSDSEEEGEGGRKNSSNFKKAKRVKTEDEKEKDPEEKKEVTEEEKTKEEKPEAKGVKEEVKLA

Structure (SMILES)	IC50 [1] [nM]	IC50 [2] [nM]	EC50 [3, 7] [nM]	EC50 [3, 8] [nM]	pIC50 [4]	pIC50 [5]	pIC50 [6]	EC50 [3, 9] [nM]	EC50 ([3]; read-out: Karn EC50 nM 5% NHS) [nM]
CCn1ccc2cc(-c3c[nH]c([C@@H](N)CCCCCC(=O)c4ncco4)n3)ccc2c1=O [Example 10, (S)-6-(2-(1-amino-7-(oxazol-2-yl)-7-oxoheptyl)-1H-imidazol-4-yl)-2-ethylisoquinolin-1(2H)-one]	9.9	2350	300	450	8.59	8.55	≤ 4.35	–	–
N#Cc1nc(-c2ccc(F)cc2)[nH]c1[C@@H](N)CCCCCC(=O)c1ncco1 [Example 185, (S)-5-(1-amino-7-(oxazol-2-yl)-7-oxoheptyl)-2-(4-fluorophenyl)-1H-imidazole-4-carbonitrile]	15	6700	250	690	8.54	8.41	≤ 4.35	–	–
COc1cc2nc(C)ccc2cc1-c1cnc([C@H](CCCCCC(=O)c2ccon2)NC(=O)C2CN(C)C2)o1 [Example 108, (S)-N-(7-(isoxazol-3-yl)-1-(5-(7-methoxy-2-methylquinolin-6-yl)oxazol-2-yl)-7-oxoheptyl)-1-methylazetidine-3-carboxamide]	0.35	5.8	6.4	6.1	9.74	9.72	< 6.05	–	–
CCN[C@@H](CCCCCC(=O)c1ncco1)c1ncc(-c2ccc3nc(C)ccc3c2)[nH]1 [Example 74, (S)-7-(ethylamino)-7-(5-(2-methylquinolin-6-yl)-1H-imidazol-2-yl)-1-(oxazol-2-yl)heptan-1-one]	5	4500	140	200	8.80	8.74	≤ 4.35	–	–
CN[C@@H](CCCCCC(=O)c1ncco1)c1ncc(-c2cc3ccc(=O)n(C)c3cc2OC)[nH]1 [Example 76, (S)-7-methoxy-1-methyl-6-(2-(1-(methylamino)-7-(oxazol-2-yl)-7-oxoheptyl)-1H-imidazol-5-yl)quinolin-2(1H)-one]	6.7	> 900	200	220	8.66	8.57	< 6.05	–	–
COC(=O)N[C@@H](CCCCCC(=O)c1ncco1)c1ncc(-c2cc3ccc(C)nc3cc2OC)[nH]1 [Example 86, (S)-methyl (1-(5-(7-methoxy-2-methylquinolin-6-yl)-1H-imidazol-2-yl)-7-(oxazol-2-yl)-7-oxoheptyl)carbamate]	9.9	160	80	160	8.70	8.82	7.40	–	–
CN(C)CC(=O)N[C@@H](CCCCCC(=O)c1ncco1)c1oc(-c2ccc(F)cc2)nc1C#N [Example 190]	21	3200	240	260	8.34	8.49	≤ 4.35	–	–
Cc1ccc2cc(-c3c[nH]c([C@H](CCCCCC(=O)c4ncco4)NC4CCOCC4)n3)ccc2n1 [Example 79, (S)-7-(5-(2-methylquinolin-6-yl)-1H-imidazol-2-yl)-1-(oxazol-2-yl)-7-((tetrahydro-2H-pyran-4-yl)amino)heptan-1-one]	35	17000	–	–	8.18	7.92	≤ 4.35	1000	1300
COc1cc2ncccc2cc1-c1c[nH]c([C@@H](N)CCCCCC(=O)c2ncco2)n1 [Example 23, (S)-7-amino-7-(4-(7-methoxyquinolin-6-yl)-1H-imidazol-2-yl)-1-(oxazol-2-yl)heptan-1-one]	9.5	660	100	210	8.72	8.74	4.51	–	–
Cc1ccc2cc(-c3c[nH]c([C@H](CCCCCC(=O)c4ncco4)NCc4ccccc4)n3)ccc2n1 [Example 81, (S)-7-(benzylamino)-7-(5-(2-methylquinolin-6-yl)-1H-imidazol-2-yl)-1-(oxazol-2-yl)heptan-1-one]	16	4900	–	–	8.47	8.43	4.68	430	690
COc1cc2nc(C)ccc2cc1-c1cnc([C@H](CCCCCC(=O)c2ncco2)Nc2ncccn2)[nH]1 [Example 85, (S)-7-(5-(7-methoxy-2-methylquinolin-6-yl)-1H-imidazol-2-yl)-1-(oxazol-2-yl)-7-(pyrimidin-2-ylamino)heptan-1-one]	11	210	67	210	8.64	8.82	6.60	–	–
O=C1CC[C@@](CCCCCC(=O)c2ccon2)(c2nc(-c3ccccc3F)c[nH]2)N1 [Example 69, (S)-5-(4-(2-fluorophenyl)-1H-imidazol-2-yl)-5-(6-(isoxazol-3-yl)-6-oxohexyl)pyrrolidin-2-one]	4.2	210	96	260	9.04	9.10	< 6.05	–	–
O=C1CCCC[C@@](CCCCCC(=O)c2ccon2)(c2nc(-c3ccccc3F)c[nH]2)N1 [Example 72, (S)-7-(4-(2-fluorophenyl)-1H-imidazol-2-yl)-7-(6-(isoxazol-3-yl)-6-oxohexyl)azepan-2-one]	89	> 900	650	1900	7.77	7.77	< 6.05	–	–
COc1cc(-c2cnc([C@@H](N)CCCCCC(=O)c3ncco3)[nH]2)c(F)cn1 [Example 129, (S)-7-amino-7-(5-(5-fluoro-2-methoxypyridin-4-yl)-1H-imidazol-2-yl)-1-(oxazol-2-yl)heptan-1-one]	100	2300	1600	2900	7.80	7.80	≤ 4.35	–	–
N[C@@H](CCCCCC(=O)c1ccon1)c1nc(Cl)c(-c2ccc(F)cc2)[nH]1 [Example 193, (S)-7-amino-7-(4-chloro-5-(4-fluorophenyl)-1H-imidazol-2-yl)-1-(isoxazol-3-yl)heptan-1-one]	7.4	1600	130	1800	8.74	8.74	≤ 4.35	–	–
O=C(CCCCC[C@H](NC(=O)c1cncs1)c1[nH]c(-c2ccc(F)cc2)nc1Cl)c1ncco1 [Example 88, (S)-N-(1-(4-chloro-2-(4-fluorophenyl)-1H-imidazol-5-yl)-7-(oxazol-2-yl)-7-oxoheptyl)thiazole-5-carboxamide]	1.4	61	25	380	9.66	9.43	≤ 4.35	–	–
COc1cc2nc(C)ccc2cc1-c1cnc([C@H](CCCCCC(=O)c2ncco2)NC(=O)C2CCC3(CC2)CN(C)C3)[nH]1 [Example 117, (S)-N-(1-(5-(7-methoxy-2-methylquinolin-6-yl)-1H-imidazol-2-yl)-7-(oxazol-2-yl)-7-oxoheptyl)-2-methyl-2-azaspiro[3.5]nonane-7-carboxamide]	5.8	21	320	320	9.09	8.85	6.17	–	–
O=C1CC[C@@](CCCCCC(=O)c2ccon2)(c2nc(-c3ccc(C4CC4)cc3F)c[nH]2)N1 [Example 68, (S)-5-(4-(4-cyclopropyl-2-fluorophenyl)-1H-imidazol-2-yl)-5-(6-(isoxazol-3-yl)-6-oxohexyl)pyrrolidin-2-one]	5	230	34	110	9.00	9.26	< 6.05	–	–
COc1cc2nc(C)ccc2cc1-c1cnc([C@H](CCCCCC(=O)c2ncco2)NC(=O)CN(C)C)[nH]1 [Example 89, (S)-2-(dimethylamino)-N-(1-(5-(7-methoxy-2-methylquinolin-6-yl)-1H-imidazol-2-yl)-7-(oxazol-2-yl)-7-oxoheptyl)acetamide]	3.4	69	–	–	9.10	8.82	5.77	13	32
COc1ncccc1-c1cnc(C(CCCCCC(=O)c2ncco2)NC(=O)[C@H]2CC23CCN(C)CC3)o1 (stereo partly drawn) [Example 114, (1S)-N-(1-(5-(2-methoxypyridin-3-yl)oxazol-2-yl)-7-(oxazol-2-yl)-7-oxoheptyl)-6-methyl-6-azaspiro[2.5]octane-1-carboxamide]	120	> 900	3400	4200	7.59	7.89	< 6.05	–	–
CN(C)CC(=O)N[C@@H](CCCCCC(=O)c1ncco1)c1[nH]c(-c2ccc(F)cc2)nc1C#N [Example 186, (S)-N-(1-(4-cyano-2-(4-fluorophenyl)-1H-imidazol-5-yl)-7-(oxazol-2-yl)-7-oxoheptyl)-2-(dimethylamino)acetamide]	1.7	220	12	21	9.55	9.41	≤ 4.35	–	–
